Activity calls are given as the source filed them. The calls are words filed in the database; no cut-off is given here.
Experiments:
Assay type in all cases: functional, cell-based
NCI/ADR-RES = assay: Cytotoxicity against taxol-resistant human NCI/ADR-RES cells after 72 hrs by MTT assay
ASPC1 = assay: Cytotoxicity against taxol-sensitive human AsPC1 cells after 72 hrs by MTT assay; conditions: ASPC1, 72 h
DLD-1 = assay: Cytotoxicity against taxol-sensitive human DLD1 cells after 72 hrs by MTT assay; conditions: DLD-1, 72 h
PANC-1 [1] = assay: Cytotoxicity against taxol-sensitive human PANC1 cells after 72 hrs by MTT assay; conditions: PANC-1, 72 h
PANC-1 [2] = assay: Cell cycle arrest in human PANC1 cells by accumulation in G2/M phase
PANC-1 [3] = assay: Induction of microtubule stabilization in human PANC1 cells assessed as formation of dense intracellular microtubule bundles

Structure (SMILES) | IC50 (NCI/ADR-RES) | IC50 (ASPC1) | IC50 (DLD-1) | IC50 (PANC-1 [1]) | Activity (PANC-1 [2]) | Activity (PANC-1 [3])
C=C/C=C\[C@H](C)[C@H](OC(N)=O)[C@@H](C)[C@H](O)[C@@H](C)C/C(C)=C\[C@H](C)[C@@H](O)[C@@H](C)/C=C\[C@@H](O)C[C@@H]1OC(=O)[C@H](C)[C@@H](O)[C@H]1C [DISERMOLIDE] | 160 nM |  |  |  |  | 
C=C/C=C\[C@H](C)[C@@H]1OC(=O)/C=C\C=C\[C@@H](C)[C@@H](O)C[C@H](O)/C=C\[C@H](C)[C@H](O)[C@@H](C)C[C@@H](C)CC[C@@H](O)[C@@H]1C [DICTYOSTATIN] | 6.6 nM | 6.2 nM | 2.2 nM | 4.2 nM |  | 
C=C/C=C\[C@H](C)[C@@H]1OC(=O)/C=C\C=C\C[C@@H](O)C[C@H](O)/C=C\[C@H](C)[C@H](O)[C@@H](C)C[C@@H](C)CC[C@@H](O)[C@@H]1C | 43 nM | 56 nM | 8.1 nM | 17 nM | Active | Active
C=C/C=C\[C@H](C)[C@@H]1OC(=O)CC/C=C/[C@@H](C)[C@@H](O)C[C@H](O)/C=C\[C@H](C)[C@H](O)[C@@H](C)C[C@@H](C)CC[C@@H](O)[C@@H]1C | 66 nM | 94 nM | 22 nM | 42 nM | Active | Active
CC(=O)O[C@H]1C(=O)[C@@]2(C)[C@H]([C@H](OC(=O)c3ccccc3)[C@]3(O)C[C@H](OC(=O)[C@H](O)[C@@H](NC(=O)c4ccccc4)c4ccccc4)C(C)=C1C3(C)C)[C@]1(OC(C)=O)CO[C@@H]1C[C@@H]2O [PACLITAXEL] | 1300 nM | 89 nM | 22 nM | 9.9 nM |  | 
C=C/C=C\[C@H](C)[C@@H]1OC(=O)CCCC[C@@H](C)[C@@H](O)C[C@H](O)/C=C\[C@H](C)[C@H](O)[C@@H](C)C[C@@H](C)CC[C@@H](O)[C@@H]1C | 130 nM | 120 nM | 55 nM | 64 nM | Active | Active

Source: ChEMBL document CHEMBL1152157, “Total synthesis and biological evaluation of potent analogues of dictyostatin: modification of the C2-C6 dienoate region” (Bioorg Med Chem Lett, 2008)
